Patent publication US20160326098A1, “Pharmaceutically Active Compound for Use as Anti-inflammatory Agent” (Pax Forschung GmbH, priority 2013, published 2016)

Experiments:
Format in all cases: in vivo
xanthine oxidase enzyme [1] = assay: Xanthine oxidase enzyme activity in tissue, rats with gastric injury without inflammation; conditions: gastric and colon tissue, 1.11 mmol/kg, vs control group H, FIGS. 24a/24b
Method: (§1) The XOR activity was determined in the ultrafiltered, concentrated supernatant by fluorometric kinetic assay based on the conversion of pterine to isoxanthopterine in the presence (total XOR) or absence (xanthine oxidase activity) of the electron acceptor methylene blue.
(§2) Further experiments regarding the effect of a compound of formula (I) and a pharmaceutical composition comprising a compound of formula (I), respectively, on gastric injury without inflammation were conducted on rats. 15 animals were randomly allocated into three groups. Group H (n=5) served as sham-operated controls. Samples of all animals were drawn on day 1 of the clinical tests. On day 2 the animals of group I (n=5) were force-fed acetylsalicylic acid (ASS) (1.11 mmol/kg body weight). Group K (n=5) was force-fed 1.11 mmol/kg body weight of the compound according to the invention. Group H only received the respective solvent (25% ethanol in water). One day after the gavage, additional samples were drawn. Fluorescence confocal endomicroscopy was performed to examine the microvasculature and morphologic changes of the mucosa of the distal colon, and full-thickness tissue samples and venous blood samples were taken to determine the biochemical changes in the colon and plasma. The effects were determined by way of measurement of body weight, blood gas analysation and biopsy. […]

myeloperoxidase (MPO) = assay: Tissue myeloperoxidase activity, rats with gastric injury without inflammation; conditions: gastric and colon tissue, one day after 1.11 mmol/kg, vs control group H, FIGS. 23a/23b
Method: Colon biopsies kept on ice were homogenized in phosphate buffer (pH 7.4) containing 50 mM Tris-HCl (Reanal, Budapest, Hungary), 0.1 mM EDTA, 0.5 mM dithiothreitol, 1 mM phenylmethylsulfonyl fluoride, 10 μg/ml soybean trypsin inhibitor, and 10 μg/ml leupeptin (Sigma Aldrich GmbH, Munich, Germany). The homogenate was centrifuged at 4° C. for 20 minutes at 24,000 g, and the supernatant was loaded into centrifugal tubes (Amicon Centricon-100; 100,000-molecular-weight cutoff ultrafilter, Millipore Corporation, Bedford, Mass.). The activity of myeloperoxidase (MPO) was measured on the pellet of the homogenate.
The activity of MPO as a marker of tissue leukocyte infiltration was measured on the pellet of the homogenate. Briefly, the pellet was resuspended in K3PO4 buffer (0.05 M; pH 6.0) containing 0.5% hexa-1,6-bis-decyltriethylammonium bromide. After three repeated freeze-thaw procedures, the material was centrifuged at 4° C. for 20 minutes at 24,000 g, and the supernatant was used for MPO determination. […] The reaction led to the hydrogen peroxide-dependent oxidation of tetramethylbenzidine, which could be detected spectrophotometrically at 450 nm (UV-1601 spetrophotometer; Shimadzu, Kyoto, Japan). Myeloperoxidase activities were measured at 37° C.; the reaction was stopped after 5 minutes by the addition of 0.2 ml of H2SO4 (2 M), and the resulting data were referred to the protein content. […]

xanthine oxidase enzyme [2] = assay: Xanthine oxidase enzyme activity in tissue, mice with TNBS-induced colitis; conditions: gastric and colon tissue, 1.11 mmol/kg, FIGS. 14a/14b
Method: Colonic inflammation was induced by intracolonic administration of TNBS (2,4,6-trinitrobenzenesulfonic acid) (40 mg/kg in 0.25 ml of 25% aqueous ethanol) through an 8-cm-long soft plastic catheter under transient diethylether anesthesia. In the sham-operated groups, only the vehicle for TNBS was administered. The animals were deprived of food, but not water, for 12 h before the enemas.
as §1
The above-described clinical studies were repeated with animals having colitis which was induced as described above. […] Two days after the enema the effects of the treatment were determined by measurement of body weight, blood gas analysis and biopsy. […] Surgery was performed to allow registration of the hemodynamic parameters at 1 h intervals for 6 h (cardiac output [CO] data were measured only at the end of the experiments). […] In addition, fluorescence confocal endomicroscopy was performed to examine the microvasculature and morphologic changes of the mucosa of the distal colon, and full-thickness tissue samples and venous blood samples were taken to determine the biochemical changes in the colon and plasma.

TNF-α = assay: Plasma TNF-α level, rats with gastric injury without inflammation; conditions: one day after 1.11 mmol/kg, vs control group H, FIG. 21
Method: Plasma TNF-α concentrations were determined in duplicate by means of a commercially available enzyme-linked immunosorbent assay (Quantikine ultrasensitive enzyme-linked immunosorbent assay kit for rat TNF-α; Biomedica Hungaria Kft, Budapest, Hungary). The minimum detectable level was less than 5 pg/ml, and the inter-assay and intra-assay coefficients of variation were less than 10%.
as §2, with “Group H only received the respective solvent (25% ethanol in water). One day after the gavage, additional samples were drawn.” left out

xanthine oxidase enzyme [3] = assay: Xanthine oxidase enzyme activity in tissue, mice with gastric injury without inflammation; conditions: gastric and duodenal tissue, 1.11 mmol/kg, vs control group A, FIGS. 6a/6b
Method: as §1
First experiments regarding the effect of the compound of formula (I) and a pharmaceutical composition comprising the compound of formula (I) (clear aqueous solution of compound of formula (I) at pH 4.8), respectively, on gastric injury without inflammation were conducted on mice. 48 animals were randomly allocated into three groups. Group A (n=16) served as sham-operated controls. Samples of all animals were drawn on day 1 of the clinical tests. On day 2 the animals of group B (n=16) were force-fed acetylsalicylic acid (ASS) (1.11 mmol/kg body weight). Group C (n=16) was force-fed 1.11 mmol/kg body weight of the compound according to the invention. Group A only received the respective solvent (25% ethanol in water). One day after the gavage, additional samples were drawn. Fluorescence confocal endomicroscopy was performed to examine the microvasculature and morphologic changes of the mucosa of the distal colon, […] The effects were determined by way of measurement of body weight, blood gas analysation and biopsy. […]

[4] = Body weight, rats with gastric injury without inflammation; conditions: 1.11 mmol/kg force-fed, one day after, FIG. 17
Method: The medicinal activity of the compound according to the invention and the pharmaceutical composition according to the invention was tested in a series of experiments performed on rats. The experiments were performed on male Sprague-Dawley rats (280-320 g) housed in plastic cages in a thermoneutral environment (21° C.±2° C.) with a 12 h dark-light cycle. The animals, fed on a normal diet with tap water ad libitum, were randomly allocated into experimental groups according to the feeding protocols.
as §2, with “Group K (n=5) was force-fed 1.11 mmol/kg body weight of the compound according to the invention. Group H only received the respective solvent (25% ethanol in water). One day after the gavage, additional samples were drawn.” left out

SMILES	activity of xanthine oxidase enzyme (xanthine oxidase enzyme [1])	myeloperoxidase (MPO) activity (myeloperoxidase (MPO))	activity of xanthine oxidase enzyme (xanthine oxidase enzyme [2])	plasma TNF-α level (TNF-α)	activity of xanthine oxidase enzyme (xanthine oxidase enzyme [3])	change in body weight [4]
CC(=O)Oc1ccccc1C(=O)O [ASS, acetylsalicylic acid, reference compound]	increased activity	increased	only a slight decrease in activity	increase in the plasma TNF-α level	increased activity	severe loss of body weight
CC(=O)Oc1ccccc1C(=O)NC(CO)(CO)CO [compound according to the invention]	no such increase	does not further enhance the inflammatory processes	enzyme activity comparable to that of healthy animals	almost no change	no such increase	only showed a minor loss in body weight
